US11185521B2, “Substituted aromatic compounds and pharmaceutical compositions for the prevention and treatment of osteoporosis” (Liminal BioSciences Inc., priority 2014, dated 2021)
Entries after “also recorded” stand apart in the source; their conditions may differ.

Tests used:
RAW264.7 cells [1] = experiment: IL-12 production in LPS-stimulated RAW264.7 cells (IL-12 ELISA); format: cell-based, murine; conditions: 100 ng/mL LPS, 21 hours
Protocol: RAW264.7 cells were cultured with 100 ng/mL of LPS in presence or absence of compounds for 21 hours in a humidified atmosphere of 95% air-5% carbon dioxide at 37° C. IL-12 concentration in the culture medium was measured using the IL-12 ELISA according to the manufacturer (BD Biosciences) recommendations. […] An in vitro IL-12 production assay was used for screening potential inhibitors of osteoclastogenesis.

db/db mice = experiment: Serum adiponectin level in uninephrectomized diabetic obese (db/db) mice; format: in vivo; conditions: uninephrectomized db/db mice treated for 113 days (FIG. 9)
Protocol: To determine if selected compounds of this invention can affect serum adiponectin level, a model of diabetes type II/obesity was used. Briefly, db/db mice (6 weeks-old were uninephrectomized and treated with Compound XIV for 113 days (structure is shown in Table 1 hereinbefore). Serum adiponectin levels were determined with a mouse adiponectin enzyme-linked immunosorbant assay kit (R&D Systems).

RAW264.7 cells [2] = experiment: LPS-induced osteoclastogenesis in RAW264.7 cells, TRAP staining; format: cell-based, murine; conditions: RAW264.7 cells differentiated with LPS (1 ug/ml), days 3-5 (FIG. 1)
Source text: RAW264.7 cells are precursors of osteoclasts and can be differentiated by several factors including Receptor activator of NF-κB ligand (RANKL) or Lipopolysaccharide (LPS). Osteoclasts are characterized by high expression or tartrate resistant acid phosphatase (TRACP) and Matrix Metalloproteinase-9 (MMP-9) which can be used as markers for osteoclasts. […] The effect of selected compounds on TRAP (osteoclast marker) and IL-12 was undertaken in RAW264.7 cells, a murine osteoclast precursor cell line, in comparison with capric acid, as a positive control for reduction of osteoclastogenesis (Park et al. (2011) PLOS One Volume 6, Issue 11, 8 pages). RAW264.7 cells were differentiated by the incubation with LPS (1 ug/ml) in presence or not of capric acid or Compound I. On days 3-5, osteoclast formation was evaluated using tartrate-resistant acid phosphatase (TRAP) staining.

RAW264.7 cells [3] = conditions: cited from earlier work
[4] = test system: ovariectomized (OVX) rats; experiment: Ovariectomized (OVX) rat model of osteoporosis; format: in vivo, Sprague Dawley rats
Source text: Although in comparison to humans, the skeletal mass of rats remains stable for a protracted period during their lifespan, rats can be ovariectomized to make them sex-hormone deficient, and to stimulate the accelerated loss of bone that occurs in women following menopause. Ovariectomy induces bone loss in the rat and postmenopausal bone loss share many similar characteristics. These include: increased rate of bone turnover with resorption exceeding formation; an initial rapid phase of bone loss followed by a much slower phase; greater loss of cancellous than cortical bone; decreased intestinal absorption of calcium; some protection against bone loss by obesity; and similar skeletal response to therapy with estrogen, tamoxifen, bisphosphonates, parathyroid hormone, calcitonin and exercise. These wide-ranging similarities are strong evidence that the ovariectomized rat bone loss model is suitable for studying problems that are relevant to postmenopausal bone loss. Sprague Dawley rats (250 g) were ovariectomized (OVX) at day 0. Rats were treated by oral gavage with Compound I (200 mg/kg) from day 14 to day 68. Evaluation of different parameters (body weight, calcium loss, osteoclast markers (RANKL and TRAP mRNA expression), collagen content and histology) was performed at day 68.

Work on `CCCCCc1cc(CC(=O)[O-])ccc1O.[Na+]` [Compound VIII, Sodium Salt of 2-(4-Hydroxy-3-pentylphenyl)acetic Acid] yielded an IL12 (RAW264.7 cells [1]; compound concentration 0.50 mM) of 20 pg/mL.
With `CCCCCc1cccc(CC(=O)[O-])c1F.[Na+]` [Compound XI, Sodium Salt of 2-(2-Fluoro-3-pentylphenyl)acetic Acid] the IL12 (RAW264.7 cells [1]; compound concentration 0.25 mM) was 15 pg/mL.
`CCCCCc1cc(CCCCC)cc(CCC(=O)[O-])c1.[Na+]` [Compound XXIV, Sodium 3-[3,5-Dipentylphenyl]propanoate] gave an IL12 (RAW264.7 cells [1]; compound concentration 0.0025 mM) of 79.9 pg/mL.
Work on `CCCCc1cccc(CCC(=O)[O-])c1.[Na+]` [Compound III, Sodium Salt of 3-(3-butylphenyl)propionic Acid] yielded an IL12 (RAW264.7 cells [1]; compound concentration 0.50 mM) of 62.28 pg/mL.
`CCCCCc1cc(CC(=O)[O-])ccc1F.[Na+]` [Compound XII, Sodium Salt of 2-(4-Fluoro-3-pentylphenyl)acetic Acid] showed an IL12 (RAW264.7 cells [1]; compound concentration 0.50 mM) of 419.6 pg/mL.
Compound `CCCCCCc1cccc(CC(=O)[O-])c1.[Na+]` [Compound VI, Sodium Salt of 2-(3-Hexylphenyl)acetic Acid] has an IL12 (RAW264.7 cells [1]; compound concentration 0.25 mM) of 58.87 pg/mL.
For `CCCC/C=C/c1cccc(CC(=O)[O-])c1.[Na+]` [Compound V, Sodium Salt of 2-(3-(Hex-1-enyl]phenyl)acetic Acid], the IL12 (RAW264.7 cells [1]; compound concentration 0.50 mM) was 52.5 pg/mL.
Compound `CCCCCc1cc(F)cc(CC(=O)[O-])c1.[Na+]` [Compound X, Sodium Salt of 2-(3-fluoro-5-pentylphenyl)acetic Acid] has an IL12 (RAW264.7 cells [1]; compound concentration 0.50 mM) of 80 pg/mL.
For `CCC/C=C/c1cccc(CC(=O)[O-])c1.[Na+]` [Compound IV, Sodium Salt of E-(3-pent-1-enyl-phenyl)acetic Acid], the IL12 (RAW264.7 cells [1]; compound concentration 0.50 mM) was 19.31 pg/mL.
In the case of `CCCCCc1cc(CCCCC)cc(CC(=O)[O-])c1.[Na+]` [Compound XIV, Sodium 2-[3,5-Dipentylphenyl] Acetate], the serum adiponectin level (db/db mice) is reported as “increased the level of adiponectin to the level of the sham animals” and the melting point is reported as 225 to 230 °C.
`CCCCCc1cccc(C(F)C(=O)[O-])c1.[Na+]` (racemic) [Compound XIII, Sodium Salt of (RS)-2-Fluoro-2-(3-pentylphenyl)acetic Acid] gave an IL12 (RAW264.7 cells [1]; compound concentration 0.25 mM) of 17.6 pg/mL.
In the case of `CCCCCCCCCC(=O)O` [capric acid], the “osteoclast formation, TRAP staining” value (RAW264.7 cells [2]) is listed as “no TRAP cells are observable”, the IL-12 production (RAW264.7 cells [3]; literature (Wang et al. 2006)) is listed as “increase in IL-12 production; also recorded: increases the production of IL-12” and the “phosphatase (TRAP)-positive cells” value (RAW264.7 cells [3]; literature (Wang et al. 2006)) is listed as “reduction of phosphatase (TRAP)-positive cells”. The “LPS-upregulated iNOS mRNA levels and nitric oxide (NO) production” value (RAW264.7 cells [3]; literature) was “inhibited them” and the “monocyte chemoattractant protein-1 (MCP-1) mRNA expression” value (RAW264.7 cells [3]; literature) was “inhibited monocyte chemoattractant protein-1 (MCP-1) mRNA expression”.
For `CCCCCc1cc(CCCCC)c(O)c(CC(=O)[O-])c1.[Na+]` [Compound XVI, Sodium Salt of 2-(2-Hydroxy-3,5-dipentylphenyl)acetic Acid], the IL12 (RAW264.7 cells [1]; compound concentration 0.005 mM) was 15 pg/mL.
`CCCCCc1cccc(CCC(=O)[O-])c1.[Na+]` [Compound II, Sodium Salt of 3-(3-pentylphenyl)propionic Acid] showed an IL12 (RAW264.7 cells [1]; compound concentration 0.50 mM) of 350.65 pg/mL.
In the case of `CCCCCc1cc(O)cc(CC(=O)[O-])c1.[Na+]` [Compound VII, Sodium Salt of 3-hydroxy-5-pentylphenylacetic Acid], the IL12 (RAW264.7 cells [1]; compound concentration 0.50 mM) is reported as 16.6 pg/mL.
`CCCCCc1cccc(CC(=O)[O-])c1O.[Na+]` [Compound IX, Sodium Salt of 2-(2-Hydroxy-3-pentylphenyl)acetic Acid] gave an IL12 (RAW264.7 cells [1]; compound concentration 0.1 mM) of 12.57 pg/mL.
In the case of `CCCCCc1cccc(CC(=O)[O-])c1.[Na+]` [Compound I, Sodium Salt of (3-pentylphenyl)acetic Acid], the “osteoclast formation, TRAP staining” value (RAW264.7 cells [2]) is reported as “no TRAP cells are observable”, the IL12 (RAW264.7 cells [1]; compound concentration 0.50 mM) is reported as 54.34 pg/mL and the “IL-12 production (in words)” value (RAW264.7 cells [1]; various concentrations (FIG. 2, Table 2)) is reported as “strong induction of IL-12 production”. The “body weight / ovariectomized-induced obesity” value ([4]; oral gavage 200 mg/kg day 14 to day 68 (FIG. 3)) was “reduced ovariectomized-induced obesity”, the “calcium loss in urine” value ([4]; oral gavage 200 mg/kg, day 28 to day 56 (FIG. 4)) was “reduced significantly the calcium loss” and the “acid phosphatase activity in serum” value ([4]; oral gavage 200 mg/kg, day 28 to day 56 (FIG. 5)) was “reduces the acid phosphatase activity”. For the same compound, the “ratio of mRNA expression of RANKL/OPG in rat tibia” value ([4]; oral gavage 200 mg/kg, day 68 (FIG. 6)) was “decreased”, the “collagen content in the metaphyse of the femur” value ([4]; oral gavage 200 mg/kg, day 68 (FIG. 7)) was “increased the collagen content” and the “bone loss in the metaphysis of the femur, histology” value ([4]; oral gavage 200 mg/kg, day 68 (FIG. 8)) was “reduced bone loss”.
